Legend:
Format in all cases: cell-based
[1] = molecular target: T1, yeast α-factor receptor (STE2) (Saccharomyces cerevisiae, UniProt D6VTK4); assay: ELISA of agonist-induced well marking by ARY84 (dephosphorylation of AF12402 tether, 3E7 detection); conditions: for Well-marking activity: selective conditions
T1 construct: expressed in transfected cells; host or cells: yeast strain ARY84 (Δste2::ura3, plasmid pRS416(URA3)-STE2)
T1 sequence (D6VTK4 1-431): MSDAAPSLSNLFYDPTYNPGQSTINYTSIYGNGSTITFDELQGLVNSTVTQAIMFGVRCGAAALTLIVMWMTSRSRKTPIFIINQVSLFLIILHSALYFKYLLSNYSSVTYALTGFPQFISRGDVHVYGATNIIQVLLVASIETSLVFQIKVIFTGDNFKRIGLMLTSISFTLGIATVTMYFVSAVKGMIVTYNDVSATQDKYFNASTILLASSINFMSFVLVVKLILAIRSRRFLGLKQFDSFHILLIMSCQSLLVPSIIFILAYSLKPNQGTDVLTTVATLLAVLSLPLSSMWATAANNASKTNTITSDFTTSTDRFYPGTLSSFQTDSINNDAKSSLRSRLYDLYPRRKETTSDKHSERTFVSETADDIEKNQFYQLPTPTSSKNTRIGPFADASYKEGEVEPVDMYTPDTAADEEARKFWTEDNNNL
Protocol: A plastic 96-well immunoassay plate (Beckman #373660) was coated with 0.41 μM streptavidin for 1 hour at 37° C. After washing, it was blocked with 1×PBS, 1% bovine serum albumin (BSA) for 1 hr at 37° C. After washing, 100 nM of AF12402 ((H)-(Phospho-Y)[…](biotin)(OH)) (SEQ ID NO:7) in 1×PBS, 0.1% BSA was incubated on the plate overnight at 4° C. The wells were washed with 1×PBS and a yeast culture containing ARY84 at a density of OD600 =0.1 in defined medium was added to the plate. The following conditions were tested: +growth selection, no α-factor; +growth selection, +500 nM α-factor.
After addition of yeast the culture was either removed immediately (t=0; wells were filled with 1×PBS/ 0.1% BSA) or after 24 hr incubation at 30° C. At the end of the incubation, the wells were washed and developed using a standard protocol with 1 nM 3E7 antibody for the primary development (4° C., 1 hr) and 1/1000 diluted alkaline phosphatase conjugated goat anti-mouse antibody (Gibco) at 4° C. for 1 hr. Binding of antibodies was quantitated using a standard colorimetric alkaline-phosphatase reaction (see Cull et al., PNAS 89, 1865-1869 (1992)).

[2] = molecular target: T2, yeast alpha factor receptor (STE2) (Saccharomyces cerevisiae, UniProt D6VTK4); assay: Secreted β-galactosidase reporter in yeast ARY 110 (FUS1 promoter); conditions: ARY110 culture supernatants
T2 construct: expressed in transfected cells; host or cells: yeast strain ARY 110 with plasmid pRS416-STE2
T2 sequence (D6VTK4 1-431): T1 sequence (D6VTK4 1-431)
Text: A second expression system links the A. niger secreted β-galactosidasegene to the yeast mating pathway/FUS1 promoter induction system. Using the integrating beta-galactosidase encoding plasmid pCMGy69 in concert with the yeast alpha factor receptor (STE2) encoding plasmid, PRS416-STE2 (centomeric), a yeast strain designated ARY 110 was produced with the following genotype; (far1 his3 sst2 FUS1-HIS3 FUS1-sBeta-Gal STE2).

[3] = molecular target: T1, yeast α-factor receptor (STE2); assay: Secretion of acid phosphatase into the medium by yeast ARY84 (pNPP assay); conditions: for % of total acid-phosphatase activity in medium: 24 Hrs; for Induction ratio: growth selection, 500 nM vs no alpha-factor
Text: The strain used in these experiments is designated ARY84 (Mata prc1-407 prb1-1122 pep4-3 leu2, 3-112 ura3-52 trp1 far1::ura3 Δhis3::APT2 FUS1::HIS3 Δste2::ura3 Δsst2::ura3 Δpho5::TRP1 LEU2::pCMGy64(::FUS1-PHO3) [pRS416(URA3)-STE2]. This yeast is engineered to grow in the presence of an agonist, and also to secrete acid phosphatase as a result of agonist stimulation. The yeast strain used in these experiments bears a mutation in the SST2 gene to enhance sensitivity to agonist, an inactivating mutation in the FAR1 gene to allow growth in the presence of agonist and an inactivating mutation in the HIS3 gene. The FUS1 gene promoter stimulates transcription of two reporter genes. The first reporter gene is HIS3. 3-aminotriazole can be used to titrate out the background activity of the HIS3 gene product resulting in growth arrest due to histidine starvation. Stimulation of HIS3 transcription from the FUS1 promoter overcomes the inhibitory effect of 3-aminotriazole, allowing growth of agonist-stimulated yeast cells. The second reporter gene is PHO3 (which was obtained by PCR from yeast genomic DNA). This gene encodes secreted yeast acid phosphatase (see Johnston & Carlson, in The Molecular and Cellular Biology of the Yeast Saccharomyce, (eds. Jones et al., CSHP, 1992) Vol. 2, Ch. 5). STE2 encodes the yeast α-factor receptor. The mutation in the […] reduces the background of acid phosphatase secreted by the yeast, though this mutation may not be necessary.
α-factor is the natural peptide agonist of the yeast α-factor receptor. The term "Growth selection" refers to growing the yeast in a defined medium (e.g., synthetic complete) (see Rose et al., Methods in Yeast Genetics: A Laboratory Course Manual (CSHLP, 1990)) lacking histidine and containing sufficient 3-aminotriazole to inhibit growth such that yeast only grow when the HIS3 gene product is expressed from the FUS1 promoter following stimulation of the STE2 receptor by α-factor. Lack of growth selection is achieved by leaving out the 3-aminotriazole and adding histdine.
Acid phosphatase activity in the yeast growth medium was quantitated using a […] assay with the substrate para-nitrophenyl phosphate (pNPP), measuring the appearance of yellow color (Payne et al., Gene 163, 19-26 (1995). When yeast were grown under various growth conditions (+/-saturating (500 nM) concentrations of α-factor, between 26% and 69% of the total acid phosphatase activity is secreted into the medium (Table 1).

## α-factor
[1]; 24 hr growth of yeast in the wells, 0.5 µM
  Increase in OD405 compared to wells lacking α-factor: 4 fold
[1]; T = 0, 500 nM alpha factor
  Well-marking activity: 0.11 OD405 units/minute
[1]; T = 0, 500 nM alpha factor, listed as alpha factor
  Well-marking activity: 0.113 OD405 units/minute
[1]; T = 24 Hrs, 500 nM alpha factor
  Well-marking activity: 0.8 OD405 units/minute
[2]
  beta-galactosidase activity in supernatants over non-induced levels: up to 79 fold
[3]; 500 nM α-factor, no growth selection, 24 hr
  Increase in acid phosphatase activity in the medium compared to absence of α-factor: 16-20 fold
[3]; alpha-factor +, growth selection +
  % of total acid-phosphatase activity in medium: 63%
[3]; alpha-factor +, growth selection -
  % of total acid-phosphatase activity in medium: 69%
[3]; 24 hours, selection +, alpha-factor +, clone #1
  Acid phosphatase activity in the medium: 0.01279 OD405 units/minute
[3]; 24 hours, selection +, alpha-factor +, clone s3
  Acid phosphatase activity in the medium: 0.02892 OD405 units/minute
[3]; 24 hours, selection -, alpha-factor +, clone #1
  Acid phosphatase activity in the medium: 0.06481 OD405 units/minute
[3]; 24 hours, selection -, alpha-factor +, clone s3
  Acid phosphatase activity in the medium: 0.1001 OD405 units/minute
[3]; 48 hr, growth selection (+10 mM 3-aminotriazole), 500 nM alpha-factor, clone #1
  Acid phosphatase activity in the medium: 0.05768 OD405 units/minute
[3]; 48 hr, growth selection (+10 mM 3-aminotriazole), 500 nM alpha-factor, clone s3
  Acid phosphatase activity in the medium: 0.1062 OD405 units/minute
[3]; 48 hr, clone #1
  Induction ratio: 32.4
[3]; 48 hr, clone s3
  Induction ratio: 58.7
[3]; with growth selection, 48 hours, 0.5 µM
  Increase in acid phosphatase activity in the medium compared to absence of α-factor: 32-58 fold
